Measured values from paper PMC2765639 (PLoS Neglected Tropical Diseases, 2009).

Assays:
L. major promastigotes = assay: L. major promastigote drug susceptibility assay (alamar blue, 384-well); type: cell-based, Leishmania major; conditions: Table S1; PMLSC library samples, 10-point 0.01–5.00 µM; read-out: EC50 Ave ± SD, Lm
Experimental: Promastigotes were grown in vented T75 tissue culture flasks and maintained at 28°C. Promastigote cultures were initiated at 10^5 parasites per mL and subcultured every 3–4 days. L. major promastigote counts were performed in duplicate using a hemocytometer and particle counter (Beckman Coulter, Fullerton, CA). For HTS assays, L. major promastigote cultures were harvested during exponential growth phase (∼2.0–3.0×10^7 parasites/mL) and were not maintained past passage 20.
The final test compound concentration was 10 µM with a constant DMSO concentration of 1% in each assay well.
The L. major promastigote drug susceptibility assay was performed in a final volume of 25 µL using our previously described 384-well microtiter plate format,[39]. For automated HTS procedures, L. major promastigotes (5,000 parasites/22 µL) in complete growth medium were seeded into each well of the microtiter plates using a MAPC2 bulk dispenser (Titertek, Huntsville, AL). Test and control compounds (3 µL) were added to individual wells using a Velocity 11 V-prep (Menlo Park, CA) liquid handling system, equipped with a 384-well dispensing head, followed by centrifugation at 50 g for 1 min. […] Assay plates were allowed to incubate for 44 h at 28°C in the presence of 5% CO2. Five µL of alamar blue reagent were added to each assay plate well and incubated for 4 h at 28°C with 5% CO2. Data were captured on a Molecular Devices SpectraMax M5 (excitation560; emission590). Individual assay plate Z-factors were derived from the vehicle and positive controls, and data from plates were used only if Z-factors were >0.5 [50].
The assays were performed in duplicate with a final 10-point concentration range spanning 0.01–5.00 µM.

A549 = assay: Mammalian cell line specificity assay (alamar blue); type: cell-based, human; conditions: Table S1; PMLSC library samples; read-out: EC50 Ave ± SD, A549
Experimental: Mammalian cells were cultured and maintained according to ATCC specifications (ATCC, Manassas, VA). Cell line drug susceptibility assays were performed in final volumes of 25 µL using our previously described 384-well microtiter plate format,[39]. […] Test and control compounds were added to individual wells as described above. Vehicle and positive controls were 1% DMSO and 10% DMSO, respectively (final well concentrations). Assay plates were incubated for 44–46 h at 37°C in the presence of 5% CO2 and growth inhibitory effects were determined as described above. Five µL of alamar blue reagent was added to each well and incubated for 2–4 h. Data were captured as described above.

EC50 (L. major promastigotes) [nM]	EC50 (A549) [nM]	Compound
87 ± 21	613 ± 109	CCOC(=O)c1c2c(n(C)c1C)C(=O)C(=O)c1ccc(Br)cc1-2 [CID 1736381]
856 ± 33	> 5000	Cc1nc([N+](=O)[O-])nn1C12CC3CC(CC(Cl)(C3)C1)C2 [CID 5032706]
746 ± 211	> 5000	CC(=O)O[C@@H]1C[C@H]2C(C)(C)C(=O)C=C[C@]2(C)[C@H]2CC[C@@]3(C)[C@H](c4ccoc4)OC(=O)[C@H]4O[C@]43[C@@]21C [CID 12004512]
35 ± 1	1640 ± 59	CCCCCCCCCCCCCCCCn1cc[n+](C)c1 [CID 2846928]
184 ± 12	> 5000	Cc1ccc(-c2cc(-c3ccc(C)cc3)[n+](C)o2)cc1.[O-][Cl+3]([O-])([O-])[O-] [CID 15945780]
743 ± 62	> 5000	COC(=O)CNc1nc(-c2ccccc2F)nc2ccccc12 [CID 3237155]
629 ± 107	4070 ± 721	CCCCCCCCCCCCCCCC[n+]1cccc(C(=O)N(CC)CC)c1 [CID 12005597]
382 ± 56	> 5000	CC1=C(C(=O)Nc2cc(-c3cccc(F)c3)[nH]n2)C2(CCCCC2)OC1=O [CID 5309827]
357 ± 56	3750 ± 623	NCC12CC3CC(C1)CC(c1ccc(Cl)cc1)(C3)C2 [CID 16192591]
491 ± 92	> 5000	CCC(/C=C1\Sc2ccc(OC)cc2N1CCO)=C\c1sc2ccc(OC)cc2[n+]1CCO [CID 12004742]
83 ± 5	> 5000	N=c1c2c(n(Cc3ccccc3)c3c1CCC3)CCC2 [CID 6603247]
845 ± 136	> 5000	[O-][N+]1=c2ccc(Nc3ccccc3)cc2=NC12CCCCC2 [CID 657546]
205 ± 21	1140 ± 53	CCCCCCCCC[n+]1cccc2c3ccccc3ccc21 [CID 11957314]
142 ± 32	> 5000	O=C(COc1ccccc1F)NC1CCN(Cc2ccccc2)CC1 [CID 11834429]
166 ± 9	> 5000	CCOC(=O)C(=Cc1cc(=O)c(OC)co1)C(=O)OCC [CID 1811924]
287 ± 145	> 5000	COc1ccc(S(=O)(=O)Nc2ccc(O)c3ccccc23)cc1 [CID 871185]
703 ± 44	> 5000	C[n+]1c(-c2ccccc2)cc(CCCCc2cc(-c3ccccc3)[n+](C)c(-c3ccccc3)c2)cc1-c1ccccc1.[O-][Cl+3]([O-])([O-])O [CID 16196006]
545 ± 193	> 5000	COC(=O)c1cccc(Cn2c(Cl)c(C=NNc3ccccc3C)sc2=O)c1 [CID 4271960]
545 ± 118	2580 ± 185	Cc1c(Cl)sn(-c2ccc(Cl)cc2)c1=O [CID 759209]
301 ± 50	> 5000	CC(C)(C)c1ccc(-c2ncccc2O)cc1 [CID 16192568]
767 ± 160	3550 ± 582	CC(C)(C)c1ccc(-n2nc(C#N)c(Cl)cc2=O)cc1 [CID 2766929]
767 ± 76	> 5000	Cc1ccc2nc(Cl)c3nnnn3c2c1 [CID 4202676]
255 ± 48	> 5000	O=C1CC(c2ccccc2Br)c2cc3c(cc2N1)CCC3 (stereo not drawn) [CID 2937831]
379 ± 77	> 5000	COc1ccc2cc3[n+](cc2c1OC)CCc1cc2c(cc1-3)OCO2 [CID 629413]
85 ± 5	> 5000	COc1ccccc1-n1cnc2c(c1=O)c1nc3ccccc3nc1n2-c1ccc(C)c(C)c1 [CID 1987332]

EC50 (L. major promastigotes) [nM]	EC50 (A549) [nM]	Compound
452 ± 74	> 5000	O=[N+]([O-])c1ccc(NNC(=S)Nc2ccc(F)cc2)cc1 [CID 3127155]
61 ± 4	> 5000	Cc1ccccc1-n1ncc2c([N+](=O)[O-])cc([N+](=O)[O-])cc21 [CID 3932660]
50 ± 0.1	> 5000	COC(=O)c1ccc2c(c1)C(C)(C)C(/C=C/c1ccc(OC)c(OC)c1OC)=[N+]2C [CID 9550329]
192 ± 2	> 5000	O=C(c1cccnc1)N(c1cc2sc(=O)oc2c2ccccc12)S(=O)(=O)c1ccccc1 [CID 3980962]
849 ± 99	> 5000	Nc1nn(-c2ccccc2)c(N)c1N=Nc1ccc2c(c1)OCO2 [CID 15944965]
205 ± 21	4080 ± 352	O=C(Nc1ccc(Cl)cn1)c1ccc([N+](=O)[O-])o1 [CID 952234]
392 ± 40	> 5000	Nc1nsc2ccccc12 [CID 89966]
178 ± 36	> 5000	CCOC(=O)c1c(-c2ccc(F)cc2)csc1NC(=O)CCN1CCOCC1 [CID 15945170]
499 ± 135	> 5000	Fc1cccc(-c2nnn3c2nc(Cl)c2ccccc23)c1 [CID 2137463]
174 ± 32	> 5000	CC[n+]1c(/C=C/N(C)c2ccccc2)sc2ccc(Cl)cc21.[O-][Cl+3]([O-])([O-])[O-] [CID 11958710]
117 ± 22	> 5000	O=[N+]([O-])c1cc(-c2nnc(C34CC5CC(CC(C5)C3)C4)o2)cc([N+](=O)[O-])c1 [CID 380438]
635 ± 26	4700 ± 311	Nc1cccc2nc3ccccc3cc12 [CID 11352]
504 ± 66	> 5000	CN(C)c1cc(NN=Cc2ccc(Cl)cc2)nc(N(C)C)n1 [CID 3769434]
505 ± 54	> 5000	O=C(c1ccccc1)c1c2c(cc3sc4ccccc4[n+]13)-c1cccc3cccc-2c13 [CID 15944971]
718 ± 86	> 5000	O=S(=O)(CCSc1nc2ccccc2s1)c1nc2ccccc2s1 [CID 2194030]
18 ± 2	2320 ± 205	COc1ccc(-[n+]2c(C)cc(/C=C3\Sc4ccccc4N3C)cc2C)cc1 [CID 16196223]
137 ± 40	> 5000	c1ccc2c(c1)OC(CCCN1CCCCC1)c1ccccc1S2 (stereo not drawn) [CID 9549148]
513 ± 52	4310 ± 540	O=c1c(Cl)nc2cc(Cl)ccc2n1CCNc1ncc(C(F)(F)F)cc1Cl [CID 1471937]
784 ± 36	> 5000	Cc1cc(C(=O)CCl)c(C)n1Cc1ccco1 [CID 1537038]
10 ± 2	1300 ± 76	CCCCCCCCCCCCCCCC[n+]1ccc(/C=N/O)cc1 [CID 11293258]
326 ± 40	> 5000	CCC(C)(c1nnnn1-c1c(C)cccc1C)N(N=O)c1ccccc1Cl (stereo not drawn) [CID 3521510]
105 ± 10	> 5000	COC(=O)c1cc2ccsc2n1Cc1nc(-c2ccc(OC)cc2)oc1C [CID 3236501]
187 ± 26	> 5000	COc1ccc(C2=NCC(CSc3nnc(-c4ccc5c(c4)OCO5)o3)S2)cc1 (stereo not drawn) [CID 2999476]
289 ± 44	2920 ± 320	CN(C)C(=O)c1ccc[n+](CC(=O)Nc2ccc(Cl)cc2)c1 [CID 422270]

Compound	EC50 (L. major promastigotes) [nM]	EC50 (A549) [nM]
O=C(NCC(c1cccnc1)N1CCN(c2ccc(F)cc2)CC1)Oc1ccccc1 (stereo not drawn) [CID 3242548]	111 ± 10	> 5000
O=C1C2CCN(CC2)C1Cc1ccc(OCCOc2ccccc2)cc1 (stereo not drawn) [CID 6603672]	274 ± 51	> 5000
COCCCN1CCN(c2nnc3n2-c2sc(Br)cc2C(c2ccccc2Cl)=NC3)CC1 [CID 11948854]	607 ± 166	> 5000
CN(C)C(=S)SSC(=S)N(C)C [CID 5455]	98 ± 12	750 ± 2
C[C@H]1C[C@@H](C)C(=O)[C@@H]([C@H](O)CC2CC(=O)NC(=O)C2)C1 [CID 6604199]	5 ± 0.1	1900 ± 1400
